≈ marks a conversion by molar mass, not a printed value.
Experiments:
Helicobacter pylori = experiment: Synergetic effect of levofloxacin and clarithromycin by contactless conductivity (ΔC) monitoring of bacterial growth; type: cell-based; conditions: indicates growth
Procedure: Step 3: Involved hardware, containers, tools, consumables and special liquid medium for Helicobacter pylori are sterilized with high temperature steam (121° C.), following by cooling down to room temperature in sterile vessels. The special liquid medium is purchased from Qingdao Hope Bio-Technology Co., Ltd (Qingdao, China).
Step 4: Levofloxacin solutions at concentrations of 0.2, 0.4, 0.6 and 0.8 g/l are prepared with ultrapure sterile water. Clarithromycin solutions at concentrations of 0.2, 0.4, 0.6 and 0.8 g/l are prepared with ethyl alcohol.
Step 5: Eight milliliter sterilized special liquid medium for Helicobacter pylori is transferred into a 10 ml centrifuge tube with a pipette.
Step 6: Twelve well-definite bacterial colonies are transferred from inoculating dish, on which Helicobacter pylori is cultured for 18-20 h, into the 10 ml centrifuge tube to prepare bacterial suspension.
Step 7: One-end-closed disposable PVC tubes in length of 12 cm are used as test tubes (5). […]

Dysentery Bacillus = experiment: AST assay of levofloxacin by contactless conductivity (ΔC) monitoring of bacterial growth; type: cell-based, Dysentery Bacillus (Enterobacteriaceae strain)
Procedure: f. Judging the bacterial cells proliferation result based on the ΔCs at the final point. The ΔC is equal to or larger than 10.0 μS/cm, indicating a proliferation; and ΔC is equal to or lower than 1.0 μS/cm, indicating a completely inhibition. The MIC is defined as the lowest concentration of antibiotic resulting in complete inhibition of growth.
Step 1: According to FIG. 1, an automated device with eight test channels is set up. An HtPot50 dry incubator, which is produced by ABSON Scientific Instruments Co. (Hefei, China), is used as a temperature control unit. The used 0.22 μm disposable syringe filter is produced by Zhejiang Aijiren INC (Quzhou, China). The actuator electrode A, pick-up electrode L and pick-up electrode S are all copper cylinders in external diameter of 4.00 mm with 0.95 mm wall thickness. Their lengths are 16 mm, 16 mm and 10 mm, respectively. In every test channel the three electrodes are coaxially fixed with fixing plate. The distance between the pick-up electrode L and pick-up electrode S is 5 mm; and the distance between the pick-up electrode S and the actuator electrode A is 10 mm. All of the electrodes of the eight test channels are linked to an ER815 capacitively coupled contactless conductivity detector (eDAQ Ltd, Australia). The capacitively coupled contactless conductivity detector is controlled with TERA TERM software installed in E470c laptop computer (Legend Holdings Corporation, China).
Step 2: The temperature in the constant temperature chamber (6) is set to be 36° C. with a nonidentity ≤0.5° C. by clicking the button of temperature control.
Step 3: Involved hardware, containers, tools, consumables and special liquid medium for Enterobacteriaceae are sterilized with high temperature steam (121° C.), following by cooling down to room temperature in sterile vessels. In the special liquid medium the concentrations of beef powder, proteose peptone, lactose, No. 3 bile salt, sodium citrate, sodium thiosulfate and ferric citrate are 5.0, 5.0, 10.0, 8.5, 8.5, 8.5 and 1.0 g/L, respectively. […]

Compound	ΔC at the end of incubation (Helicobacter pylori; clarithromycin alone 0.10, 0.20, 0.30 and 0.40 mg/l (tubes No. 1-4, Step 12)) [μS/cm]	MIC (Dysentery Bacillus; Bacillus, lowest concentration with complete inhibition of growth (ΔC not more than 1.0 μS/cm), 36° C., 21600 s) [µg/mL]	ΔC at the end of incubation (Dysentery Bacillus; levofloxacin 0.25, 0.50 and 1.00 mg/l (tubes No. 1-3), indicates growth) [μS/cm]	ΔC at the end of incubation (Dysentery Bacillus; levofloxacin 2.00, 3.00, 4.00, 5.00 and 6.00 mg/l (tubes No. 4-8), growth completely inhibited)	ΔC at the end of incubation (Helicobacter pylori; levofloxacin alone 0.10, 0.20, 0.30 and 0.40 mg/l (tubes No. 1-4)) [μS/cm]
CC[C@H]1OC(=O)[C@H](C)[C@@H](O[C@H]2C[C@@](C)(OC)[C@@H](O)[C@H](C)O2)[C@H](C)[C@@H](O[C@@H]2O[C@H](C)C[C@H](N(C)C)[C@H]2O)[C@](C)(OC)C[C@@H](C)C(=O)[C@H](C)[C@@H](O)[C@]1(C)O [clarithromycin]	≥ 14.0	–	–	–	–
C[C@H]1COc2c(N3CCN(C)CC3)c(F)cc3c(=O)c(C(=O)O)cn1c23 [levofloxacin]	–	2 (≈ 5.53 µM)	≥ 18.0	not more than 1.0 μS/cm	≥ 22.0
